# Assay results taken from patent US9255072B2, “Pyrazole compounds and thiazole compounds as protein kinases inhibitors” (National Health Rsearch Institutes, priority 2011, dated 2016).
# Where two headings read alike, the source gives them in different places.
# How the values were obtained:
# Type in all cases: biochemical
# wt-FLT3 = biological target: T1, wt-FLT3 (Homo sapiens, UniProt P36888); assay: FLT3 WT Kinase-Glo assay; conditions: FLT3 WT Kinase-Glo, 1 μM ATP; read-out: IC50
# T1 construct: FLT3 kinase catalytic domain (residues Y567˜S993); made in house; host or cells: Sf9 insect cells (baculovirus, pBac-PAK8-GST-FLT3-KD plasmid)
# T1 sequence (P36888 567-993): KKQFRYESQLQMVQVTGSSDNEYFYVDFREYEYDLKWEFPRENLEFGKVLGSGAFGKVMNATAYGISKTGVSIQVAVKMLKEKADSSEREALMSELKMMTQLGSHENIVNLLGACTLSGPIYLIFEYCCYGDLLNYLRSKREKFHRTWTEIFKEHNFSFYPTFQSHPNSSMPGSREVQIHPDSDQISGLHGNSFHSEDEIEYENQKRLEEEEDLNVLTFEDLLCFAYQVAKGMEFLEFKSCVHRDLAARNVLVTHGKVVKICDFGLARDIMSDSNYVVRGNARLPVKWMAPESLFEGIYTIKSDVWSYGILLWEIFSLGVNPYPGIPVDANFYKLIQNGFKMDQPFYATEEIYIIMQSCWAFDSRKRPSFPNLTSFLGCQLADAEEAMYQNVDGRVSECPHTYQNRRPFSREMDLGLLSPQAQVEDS
# Procedure: GST-FLT3-KD^WT containing the FLT3 kinase catalytic domain (residues Y567˜S993) were expressed in Sf9 insect cells transfected the baculovirus containing pBac-PAK8-GST-FLT3-KD plasmid. […] Following incubation, 50 μl Kinase-Glo Plus Reagent (Promega, Madison, Wis., USA) was added to each well and the mixture was incubated at 25° C. for 20 min. A 70-μL aliquot of each reaction mixture was transferred to a black microtiter plate and the luminescence was measured on Wallac Vector 1420 multilabel counter (PerkinElmer, Shelton, Conn., USA).
# VEGFR2 = biological target: T2, VEGFR2 (Homo sapiens, UniProt P35968); assay: VEGFR2 Kinase-Glo kinase assay; conditions: 1 μM ATP
# T2 construct: GST-VEGFR2 (residues V789-V1356); GST (N); made in house; host or cells: Sf9 insect cells
# Procedure: (§1) The recombinant GST-VEGFR1 (residues R781-I1338) or GST-VEGFR2 (residues V789-V1356) containing kinase domain were expressed in Sf9 insect cells. The kinase assay were carried out in 96-well plates with tested compound in a final volume of 50 μl reaction at 30° C. for 120 minutes with following components: 25 mM HEPES pH 7.4, 10 mM MgCl2, 4 mM MnCl2, 0.5 mM Na3VO4, 2 mM DTT, 0.02% Triton X100, 0.01% BSA, 1 μM ATP, 2 μM polyGlu4:Tyr peptide, 50˜100 ng recombinant VEGFR1 or VEGFR2. Following incubation, 50 μl Kinase-Glo Plus Reagent (Promega, Madison, Wis., USA) was added to each well and the mixture was incubated at 25° C. for 20 min. A 70-μL aliquot of each reaction mixture was transferred to a black microtiter plate and the luminescence was measured on Wallac Vector 1420 multilabel counter (PerkinElmer, Shelton, Conn., USA).
# VEGFR1 = biological target: T3, VEGFR1 (Homo sapiens, UniProt P17948); assay: VEGFR1 Kinase-Glo kinase assay; conditions: 1 μM ATP
# T3 construct: GST-VEGFR1 (residues R781-I1338); GST (N); made in house; host or cells: Sf9 insect cells
# T3 sequence (P17948 781-1338): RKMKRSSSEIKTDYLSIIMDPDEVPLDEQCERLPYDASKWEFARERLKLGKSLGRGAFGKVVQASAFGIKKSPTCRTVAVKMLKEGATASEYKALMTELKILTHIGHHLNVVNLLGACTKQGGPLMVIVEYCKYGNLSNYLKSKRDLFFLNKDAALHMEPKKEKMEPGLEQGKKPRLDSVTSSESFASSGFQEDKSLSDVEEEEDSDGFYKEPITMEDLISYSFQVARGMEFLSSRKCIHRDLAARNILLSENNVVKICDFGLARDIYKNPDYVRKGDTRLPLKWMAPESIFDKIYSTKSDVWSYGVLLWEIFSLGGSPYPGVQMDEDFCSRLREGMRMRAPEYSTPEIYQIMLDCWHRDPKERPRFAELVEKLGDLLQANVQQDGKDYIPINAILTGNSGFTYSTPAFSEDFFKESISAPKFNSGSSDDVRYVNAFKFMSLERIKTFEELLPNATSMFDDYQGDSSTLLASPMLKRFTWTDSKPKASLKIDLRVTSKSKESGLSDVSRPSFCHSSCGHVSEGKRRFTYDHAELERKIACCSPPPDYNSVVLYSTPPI
# Procedure: as §1
# [1] = VEGFR2 assay, bound in μM, read-out: IC50
# [2] = VEGFR2 assay, ranges in nM, read-out: IC50
# [3] = VEGFR1 assay, bound in μM, read-out: IC50
# [4] = VEGFR1 assay, bound in nM, read-out: IC50
# [5] = IC50, VEGFR1 assay, bound in μM
# [6] = IC50, VEGFR2 assay, bound in μM
# [7] = IC50, VEGFR2 assay, ranges in nM
# T2 sequence (P35968 789-1356): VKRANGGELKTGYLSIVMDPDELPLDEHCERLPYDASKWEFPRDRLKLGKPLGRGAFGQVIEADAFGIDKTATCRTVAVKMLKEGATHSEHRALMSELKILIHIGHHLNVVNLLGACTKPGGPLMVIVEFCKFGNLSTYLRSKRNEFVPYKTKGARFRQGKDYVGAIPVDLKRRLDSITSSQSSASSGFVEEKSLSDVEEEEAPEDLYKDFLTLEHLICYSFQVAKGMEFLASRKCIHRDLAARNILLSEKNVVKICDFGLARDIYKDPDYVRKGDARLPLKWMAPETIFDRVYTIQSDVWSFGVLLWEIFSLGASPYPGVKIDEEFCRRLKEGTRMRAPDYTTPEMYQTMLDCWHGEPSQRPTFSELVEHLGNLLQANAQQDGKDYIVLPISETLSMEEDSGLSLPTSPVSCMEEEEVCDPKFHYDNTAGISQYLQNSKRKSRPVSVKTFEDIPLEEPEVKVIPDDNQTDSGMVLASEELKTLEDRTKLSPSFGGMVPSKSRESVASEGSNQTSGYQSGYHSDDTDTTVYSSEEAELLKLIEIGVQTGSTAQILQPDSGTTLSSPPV
IC50 (wt-FLT3) [nM],IC50 (VEGFR2; [1]) [µM],IC50 (VEGFR2; [2]) [µM],SMILES,further results
1 to 20,,,"CN1CCN(c2ccc(C(=O)Nc3cc(-c4ccc(N)cc4)n[nH]3)cc2)CC1 [Compound 2, N1-[3-(4-aminophenyl)-1H-5-pyrazolyl]-4-(4-methylpiperazino)benzamide]",
1 to 20,< 1,0.055 to 0.4,"Cc1cc(-c2cc(NC(=O)c3ccc(N4CCN(C)CC4)cc3)[nH]n2)ccc1N [Compound 6, N1-[3-(4-amino-3-methylphenyl)-1H-5-pyrazolyl]-4-(4-methylpiperazino)benzamide]",
1 to 20,,,"CN1CCN(c2ccc(C(=O)Nc3cc(-c4ccc(CNC(=O)c5ccccc5)cc4)n[nH]3)cc2)CC1 [Compound 11, N1-(3-4-[(benzoylamino)methyl]phenyl-1H-5-pyrazolyl)-4-(4-methylpiperazino)benzamide]",
1 to 20,< 1,0.055 to 0.4,"O=C(Nc1cc(-c2cccc(NS(=O)(=O)c3ccccc3)c2)n[nH]1)c1ccc(OCCN2CCCC2)cc1 [Compound 24, N1-(3-3-[(phenylsulfonyl)amino]phenyl-1H-5-pyrazolyl)-4-(2-tetrahydro-1H-1-pyrrolylethoxy)benzamide]",IC50 (VEGFR1; [3]): < 1 µM
1 to 20,< 1,0.001 to 0.055,"CN1CCN(c2ccc(C(=O)Nc3cc(-c4ccc(NC(=O)Nc5cc(C(C)(C)C)on5)cc4)n[nH]3)cc2)CC1 [Compound 37, N1-(3-4-[([5-(tert-butyl)-3-isoxazolyl]aminocarbonyl)amino]phenyl-1H-5-pyrazolyl)-4-(4-methylpiperazino)benzamide]",IC50 (VEGFR1; [4]): < 0.1 µM; IC50 (VEGFR1; [3]): < 1 µM
1 to 20,< 1,0.001 to 0.055,"CN1CCN(c2ccc(C(=O)Nc3cc(-c4ccc(CNC(=O)Nc5ccccc5)cc4)n[nH]3)cc2)CC1 [Compound 51, N1-[3-(4-[(anilinocarbonyl)amino]methylphenyl)-1H-5-pyrazolyl]-4-(4-methylpiperazino)benzamide]",
1 to 20,< 1,0.001 to 0.055,"Cc1cc(NC(=O)NCc2ccc(-c3cc(NC(=O)c4ccc(OCCN5CCCC5)cc4)[nH]n3)cc2)no1 [Compound 57, N1-(3-4-[([(5-methyl-3-isoxazolyl)amino]carbonylamino)methyl]phenyl-1H-5-pyrazolyl)-4-(2-tetrahydro-1H-1-pyrrolylethoxy)benzamide]",
1 to 20,< 1,0.001 to 0.055,"CC(C)(C)c1cc(NC(=O)NCc2ccc(-c3cc(NC(=O)c4ccc(OCCN5CCOCC5)cc4)[nH]n3)cc2)no1 [Compound 60, N1-[3-(4-[([5-(tert-butyl)-3-isoxazolyl]aminocarbonyl)amino]methylphenyl)-1H-5-pyrazolyl]-4-(2-morpholinoethoxy)benzamide]",
1 to 20,< 1,0.055 to 0.4,"O=C(NCc1ccc(-c2cc(NC(=O)c3ccc(OCCN4CCCC4)cc3)[nH]n2)cc1)OCc1ccccc1 [Compound 73, Benzyl-N-[4-(5-[4-(2-tetrahydro-1H-1-pyrrolylethoxy)benzoyl]amino-1H-3-pyrazolyl)benzyl]carbamate]",IC50 (VEGFR1; [4]): < 0.1 µM; IC50 (VEGFR1; [3]): < 1 µM
1 to 20,< 1,0.055 to 0.4,"Cc1cc(COC(=O)NCc2ccc(-c3cc(NC(=O)c4ccc(N5CCN(C)CC5)cc4)[nH]n3)cc2)no1 [Compound 75, (5-Methyl-3-isoxazolyl)methyl-N-[4-(5-[4-(4-methylpiperazino)benzoyl]amino-1H-3-pyrazolyl)benzyl]carbamate]",IC50 (VEGFR1; [3]): < 1 µM
1 to 20,,,"CN1CCN(Cc2ccc(C(=O)Nc3cc(-c4ccc(CNC(=O)OCc5ccccc5)cc4)n[nH]3)cc2)CC1 [Compound 77, Benzyl-N-4-[5-(4-[(4-methylpiperazino)methyl]benzoylamino)-1H-3-pyrazolyl]benzylcarbamate]",
1 to 20,,,"O=C(NCc1ccc(-c2cc(NC(=O)c3ccc(OCCN4CCOCC4)cc3)[nH]n2)cc1)OCc1cccnc1 [Compound 80, 3-Pyridylmethyl-N-[4-(5-[4-(2-morpholinoethoxy)benzoyl]amino-1H-3-pyrazolyl)benzyl]carbamate]",
1 to 20,< 1,0.055 to 0.4,"Cc1nc(Nc2cc(-c3ccc(CNC(=O)OCc4ccccc4)cc3)n[nH]2)cc(N2CCN(C)CC2)n1 [Compound 96, Benzyl-N-[4-(5-[2-methyl-6-(4-methylpiperazino)-4-pyrimidinyl]amino-1H-3-pyrazolyl)benzyl]carbamate]",IC50 (VEGFR1; [3]): < 1 µM
1 to 20,< 1,0.055 to 0.4,"Cc1nc(Nc2cc(-c3ccc(CNC(=O)OCc4ccccc4)cc3)n[nH]2)cc(N2CCN(CCO)CC2)n1 [Compound 97, Benzyl-N-4-[5-(6-[4-(2-hydroxyethyl)piperazino]-2-methyl-4-pyrimidinylamino)-1H-3-pyrazolyl]benzylcarbamate]",
1 to 20,,,"Cc1nc(Nc2cc(-c3ccc(CNC(=O)OCc4cc(C)on4)cc3)n[nH]2)cc(N2CCN(C)CC2)n1 [Compound 99, (5-Methyl-3-isoxazolyl)methyl-N-[4-(5-[2-methyl-6-(4-methylpiperazino)-4-pyrimidinyl]amino-1H-3-pyrazolyl)benzyl]carbamate]",
1 to 20,,,"Cc1nc(Nc2cc(-c3ccc(CNC(=O)OCc4cccnc4)cc3)n[nH]2)cc(N2CCN(C)CC2)n1 [Compound 101, 3-Pyridylmethyl-N-[4-(5-[2-methyl-6-(4-methylpiperazino)-4-pyrimidinyl]amino-1H-3-pyrazolyl)benzyl]carbamate]",

SMILES,IC50 (wt-FLT3) [nM],IC50 (VEGFR2; [1]) [µM],IC50 (VEGFR2; [2]) [µM],further results
"CN1CCN(c2ccc(C(=O)Nc3cc(-c4ccc(NC(=O)Oc5ccccc5)cc4)n[nH]3)cc2)CC1 [Compound 68, Phenyl-N-[4-(5-[4-(4-methylpiperazino)benzoyl]amino-1H-3-pyrazolyl)phenyl]carbamate]",1 to 20,,,IC50 (VEGFR1; [5]): < 1 µM; IC50 (VEGFR2; [6]): < 1 µM; IC50 (VEGFR2; [7]): 0.055 to 0.4 µM
"CN1CCN(c2ccc(C(=O)Nc3cc(-c4ccc(CNC(=O)Oc5ccccc5)cc4)n[nH]3)cc2)CC1 [Compound 82, Phenyl-N-[4-(5-[4-(4-methylpiperazino)benzoyl]amino-1H-3-pyrazolyl)benzyl]carbamate]",1 to 20,,,"IC50 (VEGFR1; IC50, VEGFR1 assay, bound in nM): < 0.1 µM; IC50 (VEGFR1; [5]): < 1 µM; IC50 (VEGFR2; [6]): < 1 µM; IC50 (VEGFR2; [7]): 0.055 to 0.4 µM"
